Data reported in PMC5867665, “Targeting Multiple Effector Pathways in Pancreatic Ductal Adenocarcinoma with a G-Quadruplex-Binding Small Molecule” (Journal of Medicinal Chemistry, 2018).

Experiments:
[1] = test system: fetal lung fibroblast-like nononcogenic control cell line (WI-38); test: 96 h SRB growth inhibition assay, WI-38; format: cell-based, human
Experimental: (§1) Compounds were screened with a 96 h SRB (sulforhodamine B) assay for their antiproliferative activity in a panel of human cancer cell lines comprising lung adenocarcinoma (A549), breast adenocarcinoma (MCF7), and PDAC (MIA PaCa-2 and PANC-1) cell lines, as well as a fetal lung fibroblast-like nononcogenic control cell line (WI-38) (Figure 1f). […] Gemcitabine is also active in these lines at low nanomolar levels, although less so in MIA PaCa-2 (IC50 19 ± 5 nM) and more so in BX-PC3 cells (6 ± 2 nM).
(§2) All cell lines were purchased from ATCC and maintained in appropriate medium supplemented with 10% fetal bovine serum (Invitrogen, UK), 2 mM L-glutamine (Invitrogen, Netherlands), and other components as specified by the suppliers. Cell lines were maintained at 37 °C, 5% CO2, and routinely passaged. Drugs were dissolved in H2O and filtered through 0.22 μm pore-size filter units (stock 10 mM) before addition to appropriate cell line media. Cellular growth inhibition was measured using the sulforhodamine B (SRB) assay in 96-well plates as described previously.[78] The 50% inhibitory concentrations (IC50) were determined by taking the mean absorbance at 540 nm for each drug concentration expressed as a percentage of the absorbance of untreated control wells.

[2] = test system: PDAC MIA PaCa-2 cells; test: 96 h SRB growth inhibition assay, MIA PaCa-2; format: cell-based, human; conditions: 96 h SRB IC50
Experimental: as §1, §2

O=C1c2ccc3c4c(c(NCCN5CCCC5)cc(c24)C(=O)N1CCCN1CCOCC1)C(=O)N(CCCN1CCOCC1)C3=O [CM03, 2,7-bis(3-morpholinopropyl)-4-((2-(pyrrolidin-1-yl)ethyl)amino)benzo[lmn][3,8]phenanthroline-1,3,6,8(2H,7H)-tetraone]
less activity toward the WI-38 cell line (vs MM41) [1]: > 4 fold | selectivity for MIA PaCa-2 compared to MCF-7 cells [2]: > 20 fold
